Measurements published in publication PMC10054758, “A Structural-Reporter Group to Determine the Core Conformation of Sialyl Lewis^x Mimetics” (Molecules, 2023).
Like-named read-outs stand apart in the source and are kept apart here.

Key:
E-selectin [1] = target: T1, E-selectin (Homo sapiens, UniProt P16581); assay: Microscale thermophoresis (MST) affinity measurement; assay type: binding; settings: for Kd: MST, 25 °C, labeled E-selectinSCR2
T1 construct: mixed 1:1 with a solution of 0.2 μM labeled E-SelectinSCR2; made in house
T1 sequence (P16581 22-301 limits assumed): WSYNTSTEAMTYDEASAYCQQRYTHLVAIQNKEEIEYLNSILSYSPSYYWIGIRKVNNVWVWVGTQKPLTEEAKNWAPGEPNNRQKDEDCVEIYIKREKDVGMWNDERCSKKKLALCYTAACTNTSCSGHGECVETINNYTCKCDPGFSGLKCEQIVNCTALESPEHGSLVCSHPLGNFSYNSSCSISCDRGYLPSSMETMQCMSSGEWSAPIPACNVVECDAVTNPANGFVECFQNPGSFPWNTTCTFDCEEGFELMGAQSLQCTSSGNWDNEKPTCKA
Method: E-selectin production (cloning, transfection, expression, and purification) and labeling were previously described for the E-selectinSCR6-IgGFc construct and for the E-selectinSCR2 construct.
E-selectinLEC2 was labeled using the amine reactive protein labeling kit BLUE-NHS as described in the Supporting Information. Buffer exchange and labeling were performed according to the manufacturer’s protocol. […] The labeled protein was dialyzed over night against assay buffer (10 mM HEPES pH 7.4, 150 mM NaCl, 1 mM CaCl2) using Slide-A-Lyzer dialysis cassettes (10 kDa MWCO). Protein concentration was determined by HPLC-UV against a BSA standard.
Microscale thermophoresis (MST) experiments were carried out at 25 °C with 100% LED power, 50% laser power, a laser on time of 30 s, and a laser off time of 5 sec using standard treated capillaries. Ligands were dissolved in assay buffer supplemented with 0.05% v/v Tween20 and titrated 1:1 for a total of 16 dilution steps. The dilution series of ligand was mixed 1:1 with a solution of 0.2 μM labeled E-SelectinSCR2 and incubated for 10 min at room temperature before measurement. Datapoints were normalized using the bound and unbound borders achieved by NanoTemper Analysis 1.2.205 software (NanoTemper Technologies GmbH, Munich, Germany) and analyzed/illustrated with GraphPad Prism 5.0 (GraphPad Software, La Jolla, CA, USA). The measurements were globally fitted using Equation (1) for single site binding. (1) PL=(CP+CL+KD) - (CP+CL+KD) - 4CPCL/2CP where [PL] is the protein–ligand complex concentration and KD is the dissociation constant. CP represents the total concentration of protein and CL the total concentration of ligand.

E-selectin [2] = target: T1, E-selectin; settings: literature data; cited from earlier work
E-selectin [3] = target: T1, E-selectin; parameters: method as in PMID 22782926; settings: binding to E-selectin; cited from earlier work
E-selectin [4] = target: T1, E-selectin; assay: E-selectin affinity, literature data; assay type: binding; settings: for ΔG (Gibbs Free Energy): calculated ΔG = -RT lnKD from literature KD

Structure (SMILES) | Kd (E-selectin [1]) | also measured
CC(C)C[C@H]1CCC[C@@H](O[C@@H]2O[C@H](CO)[C@H](O)[C@H](O[C@@H](CC3CCCCC3)C(=O)O)[C@H]2O)[C@@H]1O[C@@H]1O[C@@H](C)[C@@H](O)[C@@H](O)[C@@H]1O [2m] | 6 µM | –
CO[C@@H]1O[C@H](CO)[C@@H](O[C@@H]2O[C@H](CO)[C@H](O)[C@H](O[C@@H](CC3CCCCC3)C(=O)O)[C@H]2O)[C@H](O[C@@H]2O[C@@H](C)[C@@H](O)[C@@H](O)[C@@H]2O)[C@H]1NC(C)=O [compound 22] | – | Kd (E-selectin [2]): 280 µM
COC1OC(CO)C(OC2OC(CO)C(O)C(OC3(C(=O)O)CC(O)C(NC(C)=O)C(C(O)C(O)CO)O3)C2O)C(OC2OC(C)C(O)C(O)C2O)C1NC(C)=O (stereo not shown) [sLe^x (1), sialyl Lewis^x] | – | entropy term −TΔS° (E-selectin [3]): 5.4 kcal/mol; Kd (E-selectin [2]): 877 µM
C[C@@H]1O[C@@H](O[C@@H]2[C@@H](c3ccccc3)CCC[C@H]2O[C@@H]2O[C@H](CO)[C@H](O)[C@H](O[C@@H](CC3CCCCC3)C(=O)O)[C@H]2O)[C@@H](O)[C@H](O)[C@@H]1O [2g] | 8.8 µM | –
C[C@@H]1O[C@@H](OCCO[C@@H]2O[C@H](CO)[C@H](O)[C@H](O[C@@H](CC3CCCCC3)C(=O)O)[C@H]2O)[C@@H](O)[C@H](O)[C@@H]1O [compound 21, reference compound] | – | Kd (E-selectin [2]): 4920 µM; ΔG (Gibbs Free Energy) (E-selectin [4]): -3.148 kcal/mol
C[C@@H]1O[C@@H](O[C@@H]2CCCC[C@H]2O[C@@H]2O[C@H](CO)[C@H](O)[C@H](O[C@@H](CC3CCCCC3)C(=O)O)[C@H]2O)[C@@H](O)[C@H](O)[C@@H]1O [2a] | – | improvement of affinity (E-selectin [4]; GlcNAc replaced by (R,R)-cyclohexane-1,2-diol (22→2a)): five-fold; ΔG (Gibbs Free Energy) (E-selectin [4]): -5.75 kcal/mol; improvement of affinity (E-selectin [4]; compared to 21): 80 fold; ΔΔG (E-selectin [4]; relative to 21 (ΔΔG21→2a)): 2.603 kcal/mol
C[C@@H]1O[C@@H](O[C@@H]2[C@@H](CC3CCCCC3)CCC[C@H]2O[C@@H]2O[C@H](CO)[C@H](O)[C@H](O[C@@H](CC3CCCCC3)C(=O)O)[C@H]2O)[C@@H](O)[C@H](O)[C@@H]1O [2f] | 14 µM | –
CCCCCC[C@H]1CCC[C@@H](O[C@@H]2O[C@H](CO)[C@H](O)[C@H](O[C@@H](CC3CCCCC3)C(=O)O)[C@H]2O)[C@@H]1O[C@@H]1O[C@@H](C)[C@@H](O)[C@@H](O)[C@@H]1O [2j] | 4.3 µM | ΔG (Gibbs Free Energy) (E-selectin [1]; calculated ΔG = -RT lnKD from MST KD): -7.321 kcal/mol; ΔΔG (E-selectin [1]; relative to 2a (ΔΔG2a→2b, ΔΔG2a→2j)): 1.57 kcal/mol
CCCC[C@H]1CCC[C@@H](O[C@@H]2O[C@H](CO)[C@H](O)[C@H](O[C@@H](CC3CCCCC3)C(=O)O)[C@H]2O)[C@@H]1O[C@@H]1O[C@@H](C)[C@@H](O)[C@@H](O)[C@@H]1O [2i] | 5.4 µM | –
C[C@@H]1O[C@@H](O[C@H]2[C@H](O[C@@H]3O[C@H](CO)[C@H](O)[C@H](O[C@@H](CC4CCCCC4)C(=O)O)[C@H]3O)CCC[C@@H]2C(C)(C)C)[C@@H](O)[C@H](O)[C@@H]1O [2h] | 51 µM | –

Continued, in another order:

Kd (E-selectin [1]) | Structure (SMILES) | also measured
6.8 µM | CC(C)[C@H]1CCC[C@@H](O[C@@H]2O[C@H](CO)[C@H](O)[C@H](O[C@@H](CC3CCCCC3)C(=O)O)[C@H]2O)[C@@H]1O[C@@H]1O[C@@H](C)[C@@H](O)[C@@H](O)[C@@H]1O [2d] | –
31 µM | COCCOC[C@H]1CCC[C@@H](O[C@@H]2O[C@H](CO)[C@H](O)[C@H](O[C@@H](CC3CCCCC3)C(=O)O)[C@H]2O)[C@@H]1O[C@@H]1O[C@@H](C)[C@@H](O)[C@@H](O)[C@@H]1O [2l] | –
9.5 µM | C[C@@H]1O[C@@H](O[C@@H]2[C@@H](CC(F)(F)F)CCC[C@H]2O[C@@H]2O[C@H](CO)[C@H](O)[C@H](O[C@@H](CC3CCCCC3)C(=O)O)[C@H]2O)[C@@H](O)[C@H](O)[C@@H]1O [2n] | –
28 µM | C[C@@H]1O[C@@H](O[C@@H]2[C@@H](CCCc3ccccc3)CCC[C@H]2O[C@@H]2O[C@H](CO)[C@H](O)[C@H](O[C@@H](CC3CCCCC3)C(=O)O)[C@H]2O)[C@@H](O)[C@H](O)[C@@H]1O [2k] | –
18 µM | C[C@@H]1O[C@@H](O[C@@H]2[C@@H](Cc3ccccc3)CCC[C@H]2O[C@@H]2O[C@H](CO)[C@H](O)[C@H](O[C@@H](CC3CCCCC3)C(=O)O)[C@H]2O)[C@@H](O)[C@H](O)[C@@H]1O [2e] | –
